ChEMBL document CHEMBL1138893, “Modulators of the human CCR5 receptor. Part 3: SAR of substituted 1-[3-(4-methanesulfonylphenyl)-3-phenylpropyl]-piperidinyl phenylacetamides” (Bioorg Med Chem Lett, 2006)

What was measured:
in vivo [1] = conditions: rat, iv
Description: Half life in rat at 1-2 mg/kg, iv

in vivo [2] = conditions: rat, iv; remark: listed apart in the source
Description: Clearance in rat at 1-2 mg/kg, iv

in vivo [3] = conditions: rat, iv; remark: listed apart in the source
[4] = target: C-C chemokine receptor type 5 (Homo sapiens, UniProt P51681); test: biochemical
C-C chemokine receptor type 5, sequence (P51681 whole entry): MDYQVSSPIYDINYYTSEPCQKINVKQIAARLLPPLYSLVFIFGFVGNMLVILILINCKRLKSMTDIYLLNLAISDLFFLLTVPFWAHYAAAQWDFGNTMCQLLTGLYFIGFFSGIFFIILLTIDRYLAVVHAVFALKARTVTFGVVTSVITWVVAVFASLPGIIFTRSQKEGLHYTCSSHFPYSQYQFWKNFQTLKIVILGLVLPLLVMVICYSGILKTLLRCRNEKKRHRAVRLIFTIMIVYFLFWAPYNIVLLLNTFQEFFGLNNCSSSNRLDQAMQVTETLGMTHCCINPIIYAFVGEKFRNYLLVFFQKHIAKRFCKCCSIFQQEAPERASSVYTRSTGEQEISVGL
Description: Displacement of [125I]MIP-1-alpha to human recombinant CCR5 expressed in CHO cells

Row | Compound | half-life (in vivo [1]) | clearance (in vivo [2]) | Vd (in vivo [3]) | IC50 [4]
1 | CCN(C(=O)Cc1ccc(S(C)(=O)=O)cc1)C1CCN(CCC(c2ccc(F)cc2)c2ccc(F)cc2)CC1 | 2.4 h | 0.6 L/h/kg | 1.7 L/kg | 
2 | C=CCN(C(=O)Cc1ccc(S(C)(=O)=O)cc1)C1CCN(CCC(c2ccccc2)c2ccccc2)CC1 | 0.9 h | 3.24 L/h/kg | 2.7 L/kg | 
3 | CCN(C(=O)Cc1ccc(S(C)(=O)=O)cc1)C1CCN(CC[C@H](c2ccc(S(C)(=O)=O)cc2)c2cccc(C(C)(C)C)c2)CC1 |  |  |  | 0.5 µM
4 | CCN(C(=O)Cc1ccc(S(C)(=O)=O)cc1)C1CCN(CC[C@H](c2ccc(S(C)(=O)=O)cc2)c2cccc(C#N)c2)CC1 |  |  |  | 0.056 µM
